Measured values taken from ChEMBL document CHEMBL1201862, “PubChem BioAssay data set” (2004).
Active and inactive are the calls of the source. Peptide text beside a SMILES is read from it.

What was measured:
[1] = target: T1, Heat shock factor protein 1 (Mus musculus, UniProt P38532); assay: inhibition of MG132-induced HSE-luciferase signal, confirmation, cell-based, NIH3T3, luminescence, dose retest (AID 2382); assay type: functional;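 also: NIH3T3 fibroblasts with HSF1-driven luciferase reporter stressed by proteasome inhibitor MG132; luminescence from HSF1-driven luciferase expression after 8 hours of MG132 stress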
T1 sequence (P38532 whole entry): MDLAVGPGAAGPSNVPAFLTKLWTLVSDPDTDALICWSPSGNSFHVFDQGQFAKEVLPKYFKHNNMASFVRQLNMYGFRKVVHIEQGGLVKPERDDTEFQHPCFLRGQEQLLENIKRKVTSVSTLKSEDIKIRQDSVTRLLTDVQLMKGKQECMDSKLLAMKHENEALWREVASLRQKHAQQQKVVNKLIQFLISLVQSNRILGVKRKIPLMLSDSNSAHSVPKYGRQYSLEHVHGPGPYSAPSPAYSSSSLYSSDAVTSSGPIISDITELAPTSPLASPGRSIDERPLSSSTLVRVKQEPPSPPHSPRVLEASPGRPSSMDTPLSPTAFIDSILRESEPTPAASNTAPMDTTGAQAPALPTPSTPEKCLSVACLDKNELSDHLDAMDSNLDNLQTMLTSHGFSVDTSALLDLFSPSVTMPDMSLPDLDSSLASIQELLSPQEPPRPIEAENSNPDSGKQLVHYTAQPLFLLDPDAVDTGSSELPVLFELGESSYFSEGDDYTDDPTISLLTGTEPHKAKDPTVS

[2] = HEp-2 cell cytotoxicity, dose response, cytotoxicity control for RSV inhibitor project, HTS (AID 2410); assay type: functional; conditions: human respiratory syncytial virus
[3] = target: T2, Cytochrome P450 1A2 (Homo sapiens, UniProt P05177);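 also: PubChem cytochrome P450 panel assay, CYP1A2 panel member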
T2 sequence (P05177 whole entry): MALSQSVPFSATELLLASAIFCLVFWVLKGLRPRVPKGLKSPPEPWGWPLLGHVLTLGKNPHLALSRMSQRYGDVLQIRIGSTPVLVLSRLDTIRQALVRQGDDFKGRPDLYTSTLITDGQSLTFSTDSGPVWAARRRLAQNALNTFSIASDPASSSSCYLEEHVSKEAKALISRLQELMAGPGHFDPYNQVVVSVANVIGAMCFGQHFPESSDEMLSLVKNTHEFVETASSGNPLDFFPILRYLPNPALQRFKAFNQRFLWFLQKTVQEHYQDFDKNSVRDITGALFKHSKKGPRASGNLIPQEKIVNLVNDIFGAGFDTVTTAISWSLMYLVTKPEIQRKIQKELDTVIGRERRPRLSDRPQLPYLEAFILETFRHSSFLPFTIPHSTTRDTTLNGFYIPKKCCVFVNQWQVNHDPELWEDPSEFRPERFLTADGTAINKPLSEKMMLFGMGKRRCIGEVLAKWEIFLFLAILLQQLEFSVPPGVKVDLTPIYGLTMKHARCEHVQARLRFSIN

[4] = target: Cytochrome P450 3A4 (Homo sapiens, UniProt P08684);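 also: CYP3A4 tested as one member of a cytochrome P450 panel screen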
Cytochrome P450 3A4, sequence (P08684 whole entry): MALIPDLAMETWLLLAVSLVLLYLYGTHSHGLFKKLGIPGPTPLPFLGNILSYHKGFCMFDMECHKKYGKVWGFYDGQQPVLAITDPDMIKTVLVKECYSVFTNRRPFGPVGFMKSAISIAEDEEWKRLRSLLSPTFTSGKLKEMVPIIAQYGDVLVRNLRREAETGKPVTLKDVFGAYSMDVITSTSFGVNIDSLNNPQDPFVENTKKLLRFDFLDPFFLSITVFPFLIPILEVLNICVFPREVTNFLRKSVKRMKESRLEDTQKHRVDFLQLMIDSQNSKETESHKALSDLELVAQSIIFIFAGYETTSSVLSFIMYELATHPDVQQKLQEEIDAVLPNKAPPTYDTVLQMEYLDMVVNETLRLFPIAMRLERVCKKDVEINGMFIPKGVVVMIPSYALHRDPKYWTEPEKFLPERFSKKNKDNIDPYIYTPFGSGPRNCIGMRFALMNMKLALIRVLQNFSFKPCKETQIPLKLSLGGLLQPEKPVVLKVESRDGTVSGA

[5] = target: T3, Rac GTPase-activating protein 1 (Homo sapiens, UniProt Q9H0H5); assay: MgcRacGAP GTPase-activating activity inhibitors, confirmation, biochemical, ADP Hunter fluorescence, primary and confirmatory (AID 624330); assay type: functional
T3 sequence (Q9H0H5 whole entry): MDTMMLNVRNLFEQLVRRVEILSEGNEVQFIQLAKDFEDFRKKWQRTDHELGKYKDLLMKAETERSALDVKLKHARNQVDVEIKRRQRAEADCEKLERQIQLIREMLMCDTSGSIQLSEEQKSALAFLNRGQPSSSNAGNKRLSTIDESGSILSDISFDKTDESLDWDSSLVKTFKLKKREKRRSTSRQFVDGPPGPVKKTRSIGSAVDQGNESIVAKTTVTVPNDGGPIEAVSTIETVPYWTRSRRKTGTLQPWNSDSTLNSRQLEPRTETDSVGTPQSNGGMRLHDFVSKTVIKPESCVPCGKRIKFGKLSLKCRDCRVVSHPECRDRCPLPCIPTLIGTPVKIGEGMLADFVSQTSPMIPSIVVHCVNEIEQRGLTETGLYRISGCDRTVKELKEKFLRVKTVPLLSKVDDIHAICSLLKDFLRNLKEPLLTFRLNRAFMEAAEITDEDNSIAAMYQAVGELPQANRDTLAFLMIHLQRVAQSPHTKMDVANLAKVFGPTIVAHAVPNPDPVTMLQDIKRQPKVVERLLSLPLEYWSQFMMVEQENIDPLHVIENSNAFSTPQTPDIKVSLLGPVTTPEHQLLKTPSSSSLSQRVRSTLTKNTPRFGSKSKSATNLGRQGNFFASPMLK

[6] = target: Paired box protein Pax-8 (Homo sapiens, UniProt Q06710); assay: inhibitors of PAX8-driven TPO luciferase reporter, dose response, RMG-I cells, cherry-pick (AID 687027); assay type: functional, cell-based;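 also: luciferase reporter driven by Pax8 target thyroperoxidase promoter measured by SteadyGlo luminescence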
Paired box protein Pax-8, sequence (Q06710 whole entry): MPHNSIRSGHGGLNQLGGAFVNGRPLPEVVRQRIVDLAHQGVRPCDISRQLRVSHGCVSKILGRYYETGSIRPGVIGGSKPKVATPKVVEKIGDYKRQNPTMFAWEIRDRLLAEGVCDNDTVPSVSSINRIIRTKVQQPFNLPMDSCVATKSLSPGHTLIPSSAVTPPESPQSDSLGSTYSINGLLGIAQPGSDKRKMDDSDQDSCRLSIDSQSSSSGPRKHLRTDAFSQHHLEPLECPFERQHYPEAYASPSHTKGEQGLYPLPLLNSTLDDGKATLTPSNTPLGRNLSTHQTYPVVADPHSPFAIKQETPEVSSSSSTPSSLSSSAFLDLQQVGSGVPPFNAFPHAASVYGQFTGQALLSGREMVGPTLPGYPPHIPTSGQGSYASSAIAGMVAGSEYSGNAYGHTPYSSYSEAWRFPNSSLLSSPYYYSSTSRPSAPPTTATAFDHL

[7] = target: Cytochrome P450 2D6 (Homo sapiens, UniProt P10635);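 also: CYP2D6 member of a cytochrome P450 panel assay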
Cytochrome P450 2D6, sequence (P10635 whole entry): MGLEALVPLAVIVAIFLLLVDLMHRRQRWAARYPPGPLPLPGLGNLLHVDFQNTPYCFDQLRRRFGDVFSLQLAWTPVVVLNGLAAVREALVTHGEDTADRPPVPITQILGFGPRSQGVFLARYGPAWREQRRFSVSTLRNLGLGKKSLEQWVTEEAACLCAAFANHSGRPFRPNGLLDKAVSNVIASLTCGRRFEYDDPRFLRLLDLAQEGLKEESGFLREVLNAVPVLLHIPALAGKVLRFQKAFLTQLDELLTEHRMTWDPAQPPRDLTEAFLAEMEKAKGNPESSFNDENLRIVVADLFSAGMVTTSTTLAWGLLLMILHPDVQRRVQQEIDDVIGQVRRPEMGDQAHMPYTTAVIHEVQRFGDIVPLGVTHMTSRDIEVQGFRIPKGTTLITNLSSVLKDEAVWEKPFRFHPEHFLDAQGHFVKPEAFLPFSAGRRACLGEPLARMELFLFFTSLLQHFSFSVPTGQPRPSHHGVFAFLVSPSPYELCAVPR

[8] = system: Streptococcus sp. 'group A'; assay: growth inhibition of control SK(-) GAS strain, dose response, counter-screen for streptokinase expression inhibitor project, luminescence, kanamycin, BacTiterGlo, confirmation (AID 1900); assay type: functional, organism-based
[9] = system: Streptococcus; assay: Group A Streptococcus viability loss, dose response, counter-screen for streptokinase expression inhibitor project, luminescence, BacTiterGlo (AID 1915); assay type: functional, organism-based;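 also: potency for reduction of bacterial viability or growth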
[10] = Luminescence Cell-Based Dose Retest to Confirm Inhibitors of Cancer Stem Cells. [Related pubchem assays (depositor defined):AID2717, AID2721]; assay type: functional; conditions: Homo sapiens
[11] = target: Cytochrome P450 2C19 (Homo sapiens, UniProt P33261); assay: Cytochrome panel assay with activity outcomes. Panel member name: p450-cyp2c19 Compounds with AC50 equal or less than 10 uM are considered active; assay type: functional; conditions: read-out: AC50
Cytochrome P450 2C19, sequence (P33261 whole entry): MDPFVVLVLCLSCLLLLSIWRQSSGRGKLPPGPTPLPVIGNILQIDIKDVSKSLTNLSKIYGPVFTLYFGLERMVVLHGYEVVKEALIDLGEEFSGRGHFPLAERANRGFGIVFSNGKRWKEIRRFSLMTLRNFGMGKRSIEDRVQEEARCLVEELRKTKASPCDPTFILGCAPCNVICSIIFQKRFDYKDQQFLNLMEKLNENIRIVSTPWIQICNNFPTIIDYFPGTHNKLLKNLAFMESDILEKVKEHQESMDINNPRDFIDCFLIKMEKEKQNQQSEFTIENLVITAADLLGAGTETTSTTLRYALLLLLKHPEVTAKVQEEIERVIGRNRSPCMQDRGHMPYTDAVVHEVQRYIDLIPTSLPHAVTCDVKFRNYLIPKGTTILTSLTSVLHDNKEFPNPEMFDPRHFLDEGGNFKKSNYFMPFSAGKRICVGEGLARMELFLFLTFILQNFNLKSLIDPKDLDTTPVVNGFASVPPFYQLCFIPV

[12] = target: Cytochrome P450 2C9 (Homo sapiens, UniProt P11712)
Cytochrome P450 2C9, sequence (P11712 whole entry): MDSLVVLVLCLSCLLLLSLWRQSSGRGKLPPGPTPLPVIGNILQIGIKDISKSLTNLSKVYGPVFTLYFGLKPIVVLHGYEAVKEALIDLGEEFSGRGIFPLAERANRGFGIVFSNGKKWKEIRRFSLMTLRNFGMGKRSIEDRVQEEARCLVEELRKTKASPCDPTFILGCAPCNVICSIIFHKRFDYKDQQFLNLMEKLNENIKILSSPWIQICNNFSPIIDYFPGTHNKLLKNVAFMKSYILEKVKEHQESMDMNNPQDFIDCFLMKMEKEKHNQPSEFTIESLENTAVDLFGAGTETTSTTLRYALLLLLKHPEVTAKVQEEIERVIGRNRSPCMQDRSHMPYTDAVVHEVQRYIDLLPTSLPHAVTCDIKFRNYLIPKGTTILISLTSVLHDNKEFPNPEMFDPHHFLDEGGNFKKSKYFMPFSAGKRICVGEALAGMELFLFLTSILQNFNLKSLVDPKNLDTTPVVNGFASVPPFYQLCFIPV

[13] = system: H9c2; assay: cells; assay type: functional, cell-based; conditions: Rattus norvegicus, H9c2, Myocardium;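 also: confirmatory concentration-response retest of ultra-high-throughput screening hits for modulation of myocardial damage; cell death induced by hydrogen peroxide oxidative stress; compound pretreatment for 60 min then peroxide exposure for 2 h; potency is for protecting the cells against peroxide damage rather than for killing them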

SMILES: Cc1ccccc1C(=O)Nc1nnc(CC(=O)N/N=C/c2ccco2)s1
- EC50 [1]: > 195 µM (not active)

SMILES: Cc1ccc(C)c(N2CCN(C(=O)C3CCCN(c4ncnc5c4nc4n5CCCCC4)C3)CC2)c1 (stereo not given)
- CC50 [2]: 20.6 µM (active)

SMILES: O=C(CSc1nc2ccccc2s1)N/N=C/c1ccccc1C(=O)O
- EC50 [1]: 5.59 µM (active)

SMILES: COCCn1c(=O)c(-c2ccc(OC)cc2)nc2cnc(Oc3cccc(Cl)c3)nc21
- AC50 [3]: 6.31 µM (inconclusive)
- AC50 [4]: 2 µM (inconclusive)

SMILES: O=C(CNC(=O)c1cccs1)N/N=C/c1ccc(O)cc1O
- IC50 [5]: 63.7 µM (active)

SMILES: NCCSC(c1ccccc1)c1ccccc1
- AC50 [3]: 1.58 µM (inconclusive)
- AC50 [4]: 3.16 µM (inconclusive)

SMILES: Oc1nc2ccccc2n1C1CCN(C(c2cccc3ccccc23)c2nnnn2-c2ccc3c(c2)OCCO3)CC1 (stereo not given)
- AC50 [6]: 3.78 µM (active)

SMILES: CCOCc1cnc(C)nc1NCC(=O)c1c(C)[nH]c2ccccc12
- AC50 [7]: 12.6 µM (inconclusive)

SMILES: O=C(c1ccccc1Cc1ccccc1)N1CCN(S(=O)(=O)c2ccccc2Br)CC1
- CC50 [2]: 33.7 µM (active)

SMILES: O=c1cnc2cnc(Nc3ccccc3)nc2n1C[C@H]1CCCO1
- AC50 [4]: 31.6 µM (inconclusive)

SMILES: COC(=O)C(C)N=C(S)N1CCN(c2c(F)cc3c(=O)c(C(=O)O)cn(C4CC4)c3c2OC)CC1C (stereo not given)
- EC50 [8]: 2.85 µM (active)
- EC50 [9]: 4.39 µM (active)

SMILES: O=C(/C(=N/Nc1cccc(C(F)(F)F)c1)C(=O)C(F)(F)F)c1cccs1
- AC50 [10]: 1.76 µM (active)

SMILES: NCC#Cc1ccccc1
- AC50 [4]: 15.8 µM (inconclusive)

SMILES: CC1CN(C(=O)c2cc(S(=O)(=O)N(C)c3ccc(F)cc3)ccc2Cl)CC(C)O1 (stereo not given)
- EC50 [1]: > 195 µM (not active)

SMILES: COc1cccc(-c2nc(CS(=O)(=O)CC(=O)NCCCN3CC(C)CC(C)C3)c(C)o2)c1 (stereo not given)
- AC50 [6]: 19.1 µM (active)

SMILES: COc1ccc(OC)c(-c2nnc3n2N=C(c2ccc(OC(F)F)c(OCC4CC4)c2)CS3)c1
- AC50 [10]: 7.23 µM (active)

SMILES: Cc1cn2c(nc(=O)c3cccnc32)s1
- EC50 [1]: > 195 µM (not active)

SMILES: CS(=O)(=O)Nc1ccc(C(=O)N2CCN(c3ccccc3)CC2)cc1
- AC50 [11]: 39.8 µM (inconclusive)
- AC50 [4]: 25.1 µM (inconclusive)
- AC50 [12]: 7.94 µM (inconclusive)

SMILES: COc1cc(OC)cc(-c2sc3ccc(OC)cc3c2-c2ccc3cc[nH]c3c2)c1
- AC50 [10]: 1.87 µM (active)

SMILES: O=C(C[N+]12CN3CN(CN(C3)C1)C2)c1ccc(-c2ccccc2)cc1
- AC50 [4]: 3.16 µM (inconclusive)
- AC50 [12]: 3.16 µM (inconclusive)

SMILES: Cc1ccnc(NC(=O)c2cccc(S(=O)(=O)N3CCN(c4ccc(F)cc4)CC3)c2)c1
- CC50 [2]: 13.4 µM (active)

SMILES: C=CCNC(=O)c1c(O)c2cccc3c2n(c1=O)CCC3
- CC50 [2]: > 50 µM (active)

SMILES: CCCOc1ccc(C2C(=O)N(C3CCCCC3)CC(=O)N2C2CC2)cc1OC (stereo not given)
- AC50 [11]: 39.8 µM (inconclusive)
- AC50 [4]: 17.8 µM (inconclusive)

SMILES: COc1cc(C=O)ccc1OC(=O)c1ccc(C(C)C)cc1
- EC50 [1]: > 195 µM (not active)

SMILES: CC(C)(C)C(CN1CCCC1)OC(=O)c1ccccc1 (stereo not given)
- EC50 [1]: 19.7 µM (active)

SMILES: Cc1ccc(/C=C/C(=O)OCC(=O)NCCN2C(=O)CSC2=O)o1
- EC50 [1]: > 195 µM (not active)

SMILES: COc1ccc(/C=C/C(=O)N2CCC(C(N)=O)CC2)cc1S(=O)(=O)N1CCOCC1
- EC50 [1]: > 195 µM (not active)

SMILES: CCOCC(=O)Nc1ccc([N+](=O)[O-])cc1Cl
- CC50 [2]: > 50 µM (active)

SMILES: CCc1ccc(NC(=S)N2CCN(c3cccc(C(F)(F)F)c3)CC2)cc1
- AC50 [11]: 4.47 µM (inconclusive)
- AC50 [7]: 0.01 µM (inconclusive)

SMILES: COc1ccc(NC2CCCN(C(=O)c3ccccc3N3CCOCC3)C2)cc1OC (stereo not given)
- IC50 [5]: 198 µM (active)

SMILES: C=C(Cl)COc1ccc2c(CCCC)cc(=O)oc2c1
- CC50 [2]: 38.2 µM (active)

SMILES: COc1cc(/C=N/NC(=O)C2(O)c3ccccc3-c3ccccc32)ccc1O
- IC50 [5]: 47.6 µM (active)

SMILES: CCc1c2c(nc3cccc(OC)c13)OC(CC)C2 (stereo not given)
- AC50 [11]: 20 µM (inconclusive)
- AC50 [7]: 39.8 µM (inconclusive)

SMILES: COc1ccccc1-c1cc(NCc2cnc(C)cn2)ncn1
- AC50 [7]: 20 µM (inconclusive)

SMILES: CCn1c(=O)c2c(=O)cc(O)oc2c2ccccc21
- AC50 [11]: 3.55 µM (inconclusive)
- AC50 [4]: 0.631 µM (inconclusive)

SMILES: C=CC(C)(C)c1[nH]c2ccccc2c1C1=C(O)C(O)=C(c2c[nH]c3c(CC=C(C)C)cccc23)C(=O)C1=O
- AC50 [4]: 25.1 µM (inconclusive)

SMILES: CCn1c2ccccc2c2cc(NC(=O)CNC)ccc21
- IC50 [5]: 100 µM (active)

SMILES: O=C(Cn1ccc([N+](=O)[O-])n1)NCc1cccs1
- AC50 [3]: 15.8 µM (inconclusive)
- AC50 [11]: 14.1 µM (inconclusive)
- AC50 [4]: 39.8 µM (inconclusive)

SMILES: Cc1ccc(COn2c(-c3ccc(Cl)cc3)nc3ccc([N+](=O)[O-])cc32)cc1
- AC50 [4]: 3.55 µM (inconclusive)
- AC50 [12]: 8.91 µM (inconclusive)

SMILES: Brc1cccc(OCCN2CCOCC2)c1
- IC50 [5]: 134 µM (active)

SMILES: COc1ccc(N/N=C(/C(C)=O)N2CCCc3ccccc32)cc1
- AC50 [10]: 1.58 µM (active)

SMILES: CCOC(=O)CSc1nc(O)c2c(C)c(C)sc2n1
- IC50 [13]: 10.2 µM (active)

SMILES: S=C(c1ccc(-c2ccc(Cl)c(Cl)c2)o1)N1CCOCC1
- CC50 [2]: 29.4 µM (active)

SMILES: NC(=O)c1cc2n(n1)C(C(F)(F)F)CC(c1ccco1)N2 (stereo not given)
- CC50 [2]: 24.5 µM (active)

SMILES: Cc1cc(OCC(=O)NCCO)cc(C)c1Cl
- EC50 [1]: > 195 µM (not active)

SMILES: COC(=O)Nc1nc2cc(-c3nnc(O)c4ccccc34)ccc2[nH]1
- AC50 [10]: 11.2 µM (active)

SMILES: CCOC(=O)c1cccc(NC(=O)COc2ccc([N+](=O)[O-])cc2)c1
- AC50 [4]: 15.8 µM (inconclusive)

SMILES: Cc1cccc(/N=C/c2c(O)ccc3oc4c(c23)CCCC4)n1
- IC50 [13]: > 79 µM (inactive)

SMILES: COC(=O)C(CC(C)C)NC(=O)C(N)Cc1ccccc1 (stereo not drawn) (H-Phe-Leu-OMe; configuration not given here)
- AC50 [11]: 17.8 µM (inconclusive)
- AC50 [7]: 15.8 µM (inconclusive)

SMILES: CCOC(=O)Cc1csc(SCc2cc(=O)oc3cc(O)ccc23)n1
- IC50 [13]: > 79 µM (inactive)

SMILES: CC(=O)c1ccc(NC(S)=Nc2ccc(Br)c(Cl)c2)cc1
- EC50 [8]: 7.95 µM (active)
- EC50 [9]: 8.74 µM (active)

SMILES: CC(=O)Nc1cccc(/C(C)=N/NC(=O)c2cccs2)c1
- IC50 [13]: > 79 µM (inactive)

SMILES: Cc1ccc(N/N=C/c2cccnc2)cc1
- AC50 [10]: 4.39 µM (active)

SMILES: Cc1ccc(-c2nnn(CC(=O)N(Cc3ccco3)C(C(=O)NC(C)(C)C)c3ccc(C)o3)n2)o1 (stereo not given)
- CC50 [2]: > 50 µM (active)

SMILES: COc1cc(NS(=O)(=O)c2ccc(NC(=O)/C=C/C(=O)O)cc2)nc(OC)n1
- EC50 [1]: > 195 µM (not active)
